Experimental data taken from the NIST ThermoML archive (doi:10.1016/j.jct.2006.10.016).

Legend:
[1] = 101 kPa, Liquid
[2] = xn = mol fraction of the nth substance listed; settings: 101 kPa, Liquid

CO [methanol]
[1]
Settings | mass density [kg/m3] | viscosity [mPa·s]
303.15 K | 781.3 | 0.5178
308.15 K | 778.2 | 0.4843
313.15 K | 772.4 | 0.4515
318.15 K | 767.8 | 0.4233
323.15 K | 762.7 | 0.395

CCCO [propan-1-ol]
[1]
Settings | mass density [kg/m3] | viscosity [mPa·s]
303.15 K | 795.5 | 1.733
308.15 K | 791.1 | 1.534
313.15 K | 787 | 1.367
318.15 K | 783.3 | 1.234
323.15 K | 779.5 | 1.1

CC(C)O [propan-2-ol] + C[S+](C)[O-]
[2], x2 = 0
Settings | mass density [kg/m3] | viscosity [mPa·s]
303.15 K | 776.4 | 1.792
308.15 K | 772.6 | 1.553
313.15 K | 768.6 | 1.355
318.15 K | 763.9 | 1.182
323.15 K | 758.8 | 1.041

C[S+](C)[O-] [dimethyl sulfoxide] + CO
[2]
Settings | mass density, 303.15 K [kg/m3] | mass density, 308.15 K [kg/m3] | mass density, 313.15 K [kg/m3] | mass density, 318.15 K [kg/m3] | mass density, 323.15 K [kg/m3] | viscosity, 303.15 K [mPa·s] | viscosity, 308.15 K [mPa·s] | viscosity, 313.15 K [mPa·s] | viscosity, 318.15 K [mPa·s] | viscosity, 323.15 K [mPa·s]
x1 = 0.0998 | 837.8 | 834.7 | 829.9 | 825.2 | 820.4 | 0.5976 | 0.5587 | 0.5228 | 0.4918 | 0.4582
x1 = 0.2004 | 886 | 882.3 | 877.3 | 872.2 | 867.1 | 0.678 | 0.6322 | 0.591 | 0.5532 | 0.5163
x1 = 0.3007 | 925 | 921 | 916.3 | 910.8 | 905.7 | 0.7684 | 0.7147 | 0.6694 | 0.6281 | 0.5857
x1 = 0.3998 | 959.3 | 955 | 950.7 | 944.7 | 939.6 | 0.8719 | 0.8091 | 0.7576 | 0.7073 | 0.6605
x1 = 0.4996 | 988.4 | 983.6 | 979.6 | 973.3 | 968.4 | 0.9887 | 0.9164 | 0.8549 | 0.7972 | 0.7426
x1 = 0.6008 | 1013.9 | 1009 | 1005.6 | 999.4 | 994.4 | 1.123 | 1.037 | 0.9676 | 0.9008 | 0.8357
x1 = 0.699 | 1035.3 | 1030.1 | 1026.9 | 1020.9 | 1016 | 1.272 | 1.172 | 1.09 | 1.012 | 0.9359
x1 = 0.8011 | 1055.5 | 1050.3 | 1047.7 | 1040.9 | 1036.3 | 1.442 | 1.326 | 1.226 | 1.131 | 1.045
x1 = 0.8997 | 1073.7 | 1068.3 | 1065.8 | 1059 | 1054 | 1.629 | 1.492 | 1.379 | 1.269 | 1.167
x1 = 1 | 1090.7 | 1084.7 | 1082.3 | 1075.1 | 1070.1 | 1.832 | 1.67 | 1.537 | 1.408 | 1.289

C[S+](C)[O-] [dimethyl sulfoxide] + CCCO
[2]
Settings | mass density, 303.15 K [kg/m3] | mass density, 308.15 K [kg/m3] | mass density, 313.15 K [kg/m3] | mass density, 318.15 K [kg/m3] | mass density, 323.15 K [kg/m3] | viscosity, 303.15 K [mPa·s] | viscosity, 308.15 K [mPa·s] | viscosity, 313.15 K [mPa·s] | viscosity, 318.15 K [mPa·s] | viscosity, 323.15 K [mPa·s]
x1 = 0.1003 | 824.3 | 820.3 | 816.5 | 812.7 | 808.9 | 1.598 | 1.436 | 1.257 | 1.142 | 1.034
x1 = 0.1995 | 853.1 | 848.6 | 844.8 | 840.8 | 836.8 | 1.41 | 1.278 | 1.163 | 1.066 | 0.9724
x1 = 0.2999 | 881.4 | 876.6 | 873.2 | 868.7 | 864.8 | 1.402 | 1.277 | 1.173 | 1.078 | 0.9878
x1 = 0.3994 | 910.1 | 905.3 | 901.7 | 897.1 | 892.9 | 1.393 | 1.273 | 1.17 | 1.084 | 0.9964
x1 = 0.5 | 938.7 | 933.4 | 929.7 | 924.3 | 919.7 | 1.425 | 1.31 | 1.207 | 1.11 | 1.017
x1 = 0.5995 | 968.1 | 962.5 | 958.8 | 953.2 | 948.6 | 1.492 | 1.357 | 1.246 | 1.148 | 1.07
x1 = 0.7002 | 998.2 | 992.2 | 988.8 | 982.3 | 977.6 | 1.532 | 1.4 | 1.29 | 1.201 | 1.1
x1 = 0.7998 | 1027.6 | 1021.6 | 1017.5 | 1011 | 1006.1 | 1.593 | 1.452 | 1.335 | 1.247 | 1.14
x1 = 0.9004 | 1059.4 | 1053 | 1050 | 1043 | 1037.6 | 1.728 | 1.629 | 1.493 | 1.361 | 1.219
x1 = 1 | 1090.7 | 1084.7 | 1082.3 | 1075.1 | 1070 | 1.832 | 1.67 | 1.537 | 1.408 | 1.289

C[S+](C)[O-] [dimethyl sulfoxide] + CCO
[2]
Settings | mass density, 303.15 K [kg/m3] | mass density, 308.15 K [kg/m3] | mass density, 313.15 K [kg/m3] | mass density, 318.15 K [kg/m3] | mass density, 323.15 K [kg/m3] | viscosity, 303.15 K [mPa·s] | viscosity, 308.15 K [mPa·s] | viscosity, 313.15 K [mPa·s] | viscosity, 318.15 K [mPa·s] | viscosity, 323.15 K [mPa·s]
x1 = 0.1008 | 836 | 831.6 | 827.6 | 822.8 | 818.1 | 1.244 | 1.122 | 1.025 | 0.9261 | 0.8551
x1 = 0.2004 | 870.1 | 865.6 | 861.7 | 856.7 | 852.1 | 1.205 | 1.096 | 0.9964 | 0.9126 | 0.8356
x1 = 0.2994 | 902.4 | 897.7 | 894 | 888.8 | 884 | 1.209 | 1.098 | 1.01 | 0.9262 | 0.8544
x1 = 0.4005 | 933.9 | 929 | 925.6 | 920.1 | 915.3 | 1.237 | 1.143 | 1.038 | 0.961 | 0.8876
x1 = 0.4995 | 963.3 | 958.2 | 955 | 949.2 | 944.4 | 1.282 | 1.179 | 1.086 | 1.004 | 0.9264
x1 = 0.6005 | 991.6 | 986.3 | 983.4 | 977.4 | 972.4 | 1.361 | 1.248 | 1.154 | 1.065 | 0.9847
x1 = 0.7012 | 1018.4 | 1013 | 1010.3 | 1004.1 | 999.3 | 1.464 | 1.34 | 1.234 | 1.139 | 1.05
x1 = 0.8011 | 1043.6 | 1038.3 | 1035.9 | 1029.5 | 1024.7 | 1.557 | 1.435 | 1.323 | 1.217 | 1.125
x1 = 0.8999 | 1067.5 | 1062.1 | 1059.8 | 1053.1 | 1048.4 | 1.658 | 1.517 | 1.393 | 1.289 | 1.183
x1 = 1 | 1090.7 | 1084.7 | 1082.3 | 1075.1 | 1070 | 1.832 | 1.67 | 1.537 | 1.408 | 1.289

CCCO [propan-1-ol] + C[S+](C)[O-]
[2], x2 = 0
Settings | mass density [kg/m3] | viscosity [mPa·s]
303.15 K | 795.5 | 1.733
308.15 K | 791.1 | 1.534
313.15 K | 787 | 1.367
318.15 K | 783.3 | 1.234
323.15 K | 779.5 | 1.1

CO [methanol] + C[S+](C)[O-]
[2], x2 = 0
Settings | mass density [kg/m3] | viscosity [mPa·s]
303.15 K | 781.3 | 0.5178
308.15 K | 778.2 | 0.4843
313.15 K | 772.4 | 0.4515
318.15 K | 767.8 | 0.4233
323.15 K | 762.7 | 0.395

C[S+](C)[O-] [dimethyl sulfoxide] + CC(C)O
[2]
Settings | mass density, 303.15 K [kg/m3] | mass density, 308.15 K [kg/m3] | mass density, 313.15 K [kg/m3] | mass density, 318.15 K [kg/m3] | mass density, 323.15 K [kg/m3] | viscosity, 303.15 K [mPa·s] | viscosity, 308.15 K [mPa·s] | viscosity, 313.15 K [mPa·s] | viscosity, 318.15 K [mPa·s] | viscosity, 323.15 K [mPa·s]
x1 = 0.1001 | 806.4 | 802.2 | 798.2 | 793.2 | 787.9 | 1.525 | 1.352 | 1.2 | 1.078 | 0.9656
x1 = 0.2011 | 834.9 | 830.4 | 826 | 820.7 | 815.3 | 1.391 | 1.246 | 1.118 | 1.01 | 0.9102
x1 = 0.3005 | 865 | 860.4 | 856.3 | 850.6 | 845.2 | 1.306 | 1.18 | 1.078 | 0.9836 | 0.8887
x1 = 0.4007 | 895.8 | 891 | 887.1 | 881.3 | 875.8 | 1.335 | 1.209 | 1.103 | 1.011 | 0.9133
x1 = 0.4994 | 926.6 | 921.6 | 917.9 | 911.9 | 906.5 | 1.341 | 1.223 | 1.124 | 1.036 | 0.9383
x1 = 0.601 | 958.9 | 953.7 | 950 | 943.8 | 938.5 | 1.396 | 1.274 | 1.173 | 1.08 | 0.9843
x1 = 0.701 | 991.1 | 985.6 | 982.2 | 975.7 | 970.4 | 1.474 | 1.343 | 1.233 | 1.136 | 1.041
x1 = 0.7994 | 1023.3 | 1017.6 | 1014.5 | 1007.6 | 1002.3 | 1.55 | 1.41 | 1.31 | 1.198 | 1.108
x1 = 0.9005 | 1056.9 | 1051 | 1048.2 | 1041 | 1035.8 | 1.671 | 1.516 | 1.401 | 1.285 | 1.171
x1 = 1 | 1090.7 | 1084.7 | 1082.3 | 1075.1 | 1070 | 1.832 | 1.67 | 1.537 | 1.408 | 1.289

CCO [ethanol] + C[S+](C)[O-]
[2], x2 = 0
Settings | mass density [kg/m3] | viscosity [mPa·s]
303.15 K | 783.4 | 1.086
308.15 K | 779 | 0.9732
313.15 K | 774.6 | 0.8596
318.15 K | 769.8 | 0.8284
323.15 K | 766.1 | 0.7493
